Biological target: human IDO1 (Homo sapiens, UniProt P14902)
Assay: Assessment of human IDO-1 inhibitory activity in HEK cells (human IDO1/HEK293 cells, kynurenine read-out with Ehrlich reagent, absorbance 490 nm)
Type: cell-based
Parameters: expressed in transfected cells
Settings: HEK Human IDO-1 cellular assay
Method in brief: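 Kynurenine output from stably IDO1-transfected HEK293 cells (10,000/well, phenol red-free RPMI, 10% FBS) after 20 h compound exposure at 37 °C. The reaction was stopped with 0.2% TCA and heated 30 min at 50 °C, then the supernatant was mixed with Ehrlich reagent and read at 490 nm. IC50 was set against DMSO and a 500 nM reference standard as 0 and 100% inhibition.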

human IDO1, sequence (P14902 whole entry): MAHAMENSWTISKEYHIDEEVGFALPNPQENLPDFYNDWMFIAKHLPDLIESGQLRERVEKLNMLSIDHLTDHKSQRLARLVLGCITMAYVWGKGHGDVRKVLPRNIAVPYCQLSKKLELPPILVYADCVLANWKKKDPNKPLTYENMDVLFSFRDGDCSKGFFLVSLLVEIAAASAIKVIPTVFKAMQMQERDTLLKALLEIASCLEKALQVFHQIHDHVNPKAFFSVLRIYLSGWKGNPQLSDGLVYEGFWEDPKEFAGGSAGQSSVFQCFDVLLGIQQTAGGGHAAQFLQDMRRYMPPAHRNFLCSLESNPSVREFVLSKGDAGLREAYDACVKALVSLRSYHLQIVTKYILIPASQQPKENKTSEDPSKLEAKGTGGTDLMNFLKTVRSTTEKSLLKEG

Row | IC50 | SMILES
1 | > 50 nM | CCC(CC(=O)O)c1ccc(N2CCC[C@H]2C(C)(C)O)c(Nc2ccnc(N3CCOCC3)n2)c1 (single isomer, unassigned) [Example 817]
2 | > 50 nM | CC[C@H](CC(=O)O)c1ccc(N(CC)C2CCOCC2)c(Nc2ccn3nccc3n2)c1 (single isomer, unassigned) [Example 511]
3 | < 50 nM | CC(C)CN(CC(C)C)c1ccc(C(C)(C)CC(=O)O)cc1Nc1ccc2c(c1)OC(F)(F)O2 [Example 147, 3-(3-((2,2-difluorobenzo[d][1,3]dioxol-5-yl)amino)-4-(diisobutylamino)phenyl)-3-methylbutanoic acid]
4 | < 50 nM | CCOc1ncc(Nc2cc([C@@H](CC)CC(=O)NS(C)(=O)=O)ccc2N(CC)C2CCOCC2)cn1 (stereo in doubt) [Example 1076, 3-(3-((2-Ethoxypyrimidin-5-yl)amino)-4-(ethyl(tetrahydro-2H-pyran-4-yl)amino)phenyl)-N-(methylsulfonyl)pentanamide]
5 | < 5 nM | CCC(CC(=O)O)c1ccc(N(CC)C2CCCOC2)c(NC(=O)Nc2ccc(C)cc2)c1 (single isomer, unassigned) [Example 73 D4, 3-(4-(Ethyl(tetrahydro-2H-pyran-3-yl)amino)-3-(3-(p-tolyl)ureido)phenyl)pentanoic acid]
6 | > 50 nM | CCc1cnc(Nc2cc([C@H](CC)CC(=O)O)ccc2N(CC)C2CCOCC2)nc1 (single isomer, unassigned) [Example 500]
7 | < 5 nM | CCC(CC(=O)O)c1cc(F)c(N(CC(C)C)CC(C)C)c(Nc2ccc(C#N)cc2)c1 (single isomer, unassigned) [Example 107, 3-(3-((4-cyanophenyl)amino)-4-(diisobutylamino)-5-fluorophenyl)pentanoic acid]
8 | > 50 nM | CCOc1ncc(Nc2cc(C(CC)CC(=O)O)ccc2N2C[C@@H](C)O[C@@H](C)C2)cn1 (single isomer, unassigned) [Example 756]
9 | < 50 nM | CCOc1ccc(CC(=O)Nc2cc(C(COC)CC(=O)O)cc(F)c2N(CC(C)C)CC(C)C)cc1 (single isomer, unassigned) [Example 1181, 3-(4-(Diisobutylamino)-3-(2-(4-ethoxyphenyl)acetamido)-5-fluorophenyl)-4-methoxybutanoic acid]
10 | < 50 nM | CCC(CC(=O)O)c1ccc(N2CCOC[C@H]2C(C)C)c(NC(=O)Nc2ccc(Cl)cc2F)c1 (single isomer, unassigned) [Example 896]
11 | < 50 nM | CCN(c1ccc(C(C)(C)CC(=O)O)cc1Nc1cnc(OC)nc1)C1CCOCC1 [Example 162, 3-(4-(ethyl(tetrahydro-2H-pyran-4-yl)amino)-3-((2-methoxypyrimidin-5-yl)amino)phenyl)-3-methylbutanoic acid]
12 | < 50 nM | CC[C@H](CC(=O)O)c1ccc(N(CC)C2CCOCC2)c(NC(=O)Nc2ccc(Cl)nc2)c1 (single isomer, unassigned) [Example 532]
13 | > 50 nM | CCOc1ncc(Nc2cc([C@@H](CC)CC(=O)O)ccc2N2CCOC[C@@H]2C(C)C)cn1 (single isomer, unassigned) [Example 79]
14 | > 50 nM | COc1ncc(Nc2cc(C(C)CC(=O)O)ccc2N(CC(C)(C)O)C2CCOCC2)cn1 (single isomer, unassigned) [Example 192, 3-(4-((2-hydroxy-2-methylpropyl)(tetrahydro-2H-pyran-4-yl)amino)-3-((2-methoxypyrimidin-5-yl)amino)phenyl)butanoic acid]
15 | < 50 nM | CCOc1ncc(Nc2cc([C@H](CC)CC(=O)NS(C)(=O)=O)ccc2N(CC)C2CCOCC2)cn1 [Example 1078, 3-(3-((2-Ethoxypyrimidin-5-yl)amino)-4-(ethyl(tetrahydro-2H-pyran-4-yl)amino)phenyl)-N-(methylsulfonyl)pentanamide]
16 | > 50 nM | CCC(CC(=O)O)c1cc(F)c(N(CC(C)C)CC(C)C)c(Nc2ccc3nc(C)sc3c2)c1 (single isomer, unassigned) [Example 95, 3-(4-(Diisobutylamino)-3-fluoro-5-((2-methylbenzo[d]thiazol-6-yl)amino)phenyl)pentanoic acid]

Row | IC50 | SMILES
17 | > 50 nM | CCC(CC(=O)O)c1ccc(N2CCC[C@H]2C(C)(C)F)c(NC(=O)Nc2ccc(Cl)cc2F)c1 (single isomer, unassigned) [Example 786]
18 | > 50 nM | CCC(CC(=O)O)c1ccc(N2C[C@@H](C)O[C@@H](C)C2)c(Nc2ccc3c(c2)OC(F)(F)O3)c1 (single isomer, unassigned) [Example 758]
19 | < 5 nM | CCC(CC(=O)O)c1ccc(N(CC(C)C)C2CCCCC2)c(Nc2ccc(Cl)c(OCC(F)F)c2)c1 (single isomer, unassigned) [Example 643, 3-(3-((4-chloro-3-(2,2-difluoroethoxy)phenyl)amino)-4-(cyclohexyl (isobutyl)amino)phenyl) pentanoic acid]
20 | < 5 nM | Cc1ccc(NC(=O)Nc2cc(C(C)CC(=O)O)c(F)cc2N(CC(C)C)C2CCCCC2)cc1 (racemic) [Example 955, (+/−)-3-(4-(Cyclohexyl(isobutyl)amino)-2-fluoro-5-(3-(p-tolyl)ureido)phenyl)butanoic acid]
21 | < 5 nM | CCC(CC(=O)O)c1ccc(N2C[C@@H]3C[C@H]2CN3Cc2ccccc2)c(Nc2ccc(C)cc2)c1 (single isomer, unassigned) [Example 666 E1]
22 | < 5 nM | CCc1ccc(Nc2cc(C(CC)CC(=O)O)ccc2N(CC(C)C)C2CCCCC2)cc1 (single isomer, unassigned) [Example 309, 3-(4-(cyclohexyl(isobutyl)amino)-3-((4-ethylphenyl)amino)phenyl)pentanoic acid]
23 | < 50 nM | CCC(CC(=O)O)c1ccc(N2C[C@@H]3C[C@H]2CN3C(=O)OC(C)(C)C)c(Nc2ccc(C)cc2)c1 (single isomer, unassigned) [Example 447]
24 | > 50 nM | CC[C@@H](CC(=O)O)c1ccc(N2CCC[C@H]2C(C)(C)F)c(NC(=O)Nc2ccc(C)cc2)c1 (single isomer, unassigned) [Example 785]
25 | > 50 nM | CCC(CC(=O)O)c1ccc(N2CC[C@H](O)C2)c(Nc2ccc(Cl)cc2)c1 (single isomer, unassigned) [Example 266]
26 | < 50 nM | CC(C)CN(CC(C)C)c1c(F)cc(C(CC(=O)O)c2ccccc2)cc1Nc1ccc(Cl)cc1 (single isomer, unassigned) [Example 129, 3-(3-((4-Chlorophenyl)amino)-4-(diisobutylamino)-5-fluorophenyl)-3-phenylpropanoic acid]
27 | > 50 nM | CCC(CC(=O)O)c1ccc(N2CCC[C@H]2C(C)(C)F)c(NC(=O)Nc2ccc(C)cc2)c1 (single isomer, unassigned) [Example 792]
28 | < 50 nM | COCC(CC(=O)O)c1ccc(N(CC(C)C)C2CCCCC2)c(NC(=O)Nc2cncnc2)c1 (single isomer, unassigned) [991-1]
29 | > 50 nM | CCN(c1ccc([C@@H](COC)CC(=O)O)cc1Nc1cnc(C)nc1)C1CCOCC1 (single isomer, unassigned) [Example 379]
30 | < 5 nM | CC[C@@H](CC(=O)O)c1ccc(N(CC)C2CCOCC2)c(Nc2ccc(Cl)cc2)c1 (single isomer, unassigned) [Example 456]
31 | > 50 nM | CCOc1ncc(Nc2cc(C(C)CC(=O)O)ccc2N(CC(C)(C)O)C2CCOCC2)cn1 (single isomer, unassigned) [Example 191, 3-(3-((2-Ethoxypyrimidin-5-yl)amino)-4-((2-hydroxy-2-methylpropyl)(tetrahydro-2H-pyran-4-yl)amino)phenyl)butanoic acid]

— patent US9790169B2, “IDO inhibitors” (BRISTOL-MYERS SQUIBB COMPANY, priority 2015, dated 2017)
